This experiment deals with Plasmodium berghei. The experiment can be described thus: Luciferase/luciferin-expressing antifolate-resistant parasites were used to infect a culture of HepG2 cells that were pre-incubated with compounds. Infected hepatocytes emit light due to the luciferase reaction. Assay results are presented as the percent inhibition of light emission compared to control. […]. It is filed as functional. The settings on record: sporozoite; for IC90: read-out: LUCIFERASE INFECTION ASSAY - IC90.

[1] abbreviates: read-out: LUCIFERASE INFECTION ASSAY - IC50.

The results in this text go back to ChEMBL document CHEMBL4483862, “Open-source discovery of chemical leads for next-generation chemoprotective antimalarials” (2018).

SMILES strings stand for the structures.

In general, IC50 refers to the concentration that inhibits the measured activity by half. As usually defined, the IC90 is the concentration needed for an effect of 90%. Regarding `O=C(C1COc2ccccc2C1)N(Cc1ccccc1)c1ccccn1` (centres undefined), the IC90 is greater than 10 µM. Further, the 50% inhibitory concentration (IC50) (HEPG2TOX_HILL_SLOPE 0.0154, HEPG2TOX_R_SQUARED 0.0147, read-out: LUCIFERASE INFECTION ASSAY - IC50) was greater than 10 µM.
For `CC(C)N1C(=O)/C(=N\NC(=S)NC2CCCCC2)c2ccccc21`, the IC90 is greater than 10 µM. Also, the IC50 (FFLUC_HILL_SLOPE 3.74, FFLUC_R_SQUARED 0.413, HEPG2TOX_HILL_SLOPE 6.6, HEPG2TOX_R_SQUARED 0.125, read-out: LUCIFERASE INFECTION ASSAY - IC50) was greater than 10 µM.
`CC(C)(C)OC(=O)N1CCc2nc(NC(=O)c3ccc(Cl)cc3F)sc2C1`: the IC90 came to 8.96 µM. In addition, the IC50 (HEPG2TOX_HILL_SLOPE 2.37, HEPG2TOX_R_SQUARED 0.812, PBLUC_HILL_SLOPE 3.49, PBLUC_R_SQUARED 0.436, read-out: LUCIFERASE INFECTION ASSAY - IC50) stood at 4.77 µM.
Consider `O=C(Nc1ccc(OC(F)(F)F)cc1)Nc1ccc(Sc2ccccc2)nc1Sc1ccccc1`, for which the IC90 amounted to 1.18 µM. In addition, where the note is “HEPG2TOX_HILL_SLOPE 8.48, HEPG2TOX_R_SQUARED 0.476, PBLUC_HILL_SLOPE 1.76, PBLUC_R_SQUARED 0.832, read-out: LUCIFERASE INFECTION ASSAY - IC50”, the IC50 was determined as 0.339 µM.
As for `c1ccc(Oc2ccccc2-c2cnc3c(NCc4cccs4)nccn23)cc1`, the IC90 is greater than 8.28 µM. For the same molecule, the half-maximal inhibitory concentration (IC50) under setting [1] came out at 4.96 µM.
With `CN(Cc1ccc2c(c1)OCO2)c1cnn(-c2nc3ccccc3[nH]2)c(=O)c1Cl`, the IC90 amounted to 3.94 µM. Moreover, where the note is “HEPG2TOX_HILL_SLOPE 3.37, 11.7, HEPG2TOX_R_SQUARED 0.995, 0.503, PBLUC_HILL_SLOPE 3.37, 1.13, PBLUC_R_SQUARED 0.633, 0.779, read-out: LUCIFERASE INFECTION ASSAY - IC50”, the IC50 is 0.948 µM.
In the case of `CCOc1ccc(C2(O)C(C)N3C(=[N+]2c2ccc(OC)cc2)CCc2ccccc23)cc1` (centres undefined), the IC90 was greater than 10 µM. For the same molecule, the half-maximal inhibitory concentration (IC50) under setting [1] is greater than 10 µM.
For the molecule `CCOc1ncccc1C(=O)Nc1cc(S(=O)(=O)N2CCOCC2)ccc1Oc1ccccc1`, the IC90 was greater than 10 µM. For the setting “FFLUC_HILL_SLOPE 2.19, FFLUC_R_SQUARED 0.739, read-out: LUCIFERASE INFECTION ASSAY - IC50”, the IC50 is greater than 10 µM.
Regarding `COc1ccccc1CNC(=O)CSc1nnc(-c2ccccc2)c2ccccc12`, the IC90 was greater than 10 µM. Under setting [1], the IC50 was greater than 10 µM.
Regarding `CCOC(=O)c1cnc(NNC(=O)c2ccc(Cl)cc2Cl)nc1C(F)(F)F`, the IC90 was greater than 7.8 µM. Further, the IC50 under setting [1] is greater than 7.8 µM.
As to `O=C1CN(CC(=O)N2N=C(c3ccc4ccccc4c3)CC2c2ccccc2)c2ccccc2N1` (centres undefined), the IC90 is greater than 10 µM. Moreover, the half-maximal inhibitory concentration (IC50) (PBLUC_HILL_SLOPE 15.5, PBLUC_R_SQUARED 0.336, read-out: LUCIFERASE INFECTION ASSAY - IC50) is 9.53 µM.
For `CN1C(=O)N(CN2CCN(c3ccccn3)CC2)C(=O)C12CCCCC2`, the IC90 was greater than 10 µM. Moreover, the IC50 under setting [1] was greater than 10 µM.
As to `Cc1ccc(CSc2nnc(OC(=O)N(C)C)n2-c2cccc(Cl)c2)cc1`, the IC90 is greater than 8.19 µM. In addition, under “PBLUC_HILL_SLOPE 1.76, PBLUC_R_SQUARED 0.153, read-out: LUCIFERASE INFECTION ASSAY - IC50”, the IC50 was 6.97 µM.
On to `COc1cccc(-c2cnn3ccc(Nc4ccc(OC)nc4)nc23)c1`, for which the IC90 turned out to be 3.86 µM. In addition, the IC50 (HEPG2TOX_HILL_SLOPE 3.92, HEPG2TOX_R_SQUARED 0.974, PBLUC_HILL_SLOPE 24.4, PBLUC_R_SQUARED 0.48, read-out: LUCIFERASE INFECTION ASSAY - IC50) turned out to be 3.53 µM.
For `Cc1ccc(NC(=O)c2cccc(NS(=O)(=O)c3ccc(C)c(F)c3)c2)nc1`, the IC90 was greater than 10 µM. In addition, the IC50 under setting [1] was greater than 10 µM.
`O=C1c2n[nH]c(-c3ccccc3O)c2C(c2ccccc2F)N1Cc1ccco1` (centres undefined): the IC90 is greater than 8.47 µM. For the same molecule, for the setting “FFLUC_HILL_SLOPE 2.17, FFLUC_R_SQUARED 0.481, read-out: LUCIFERASE INFECTION ASSAY - IC50”, the half-inhibitory concentration (IC50) is greater than 8.47 µM.
For `NC(=O)c1ccsc1NC(=O)CSc1ncc(-c2ccccc2)n1-c1ccccc1`, the concentration for an effect of 90% (IC90) was 3.1 µM. The concentration for half-maximal inhibition (IC50) (HEPG2TOX_HILL_SLOPE 1.27, HEPG2TOX_R_SQUARED 0.954, PBLUC_HILL_SLOPE 1.14, PBLUC_R_SQUARED 0.72, read-out: LUCIFERASE INFECTION ASSAY - IC50) was determined as 0.447 µM.
For `CC(C)(C)c1ccc(C(=O)NCCOc2ccccc2Cl)cc1`, the IC90 stood at 0.863 µM. Moreover, the IC50 (FFLUC_HILL_SLOPE 11.3, FFLUC_R_SQUARED 0.0884, PBLUC_HILL_SLOPE 2.08, PBLUC_R_SQUARED 0.74, read-out: LUCIFERASE INFECTION ASSAY - IC50) was determined as 0.3 µM.
Consider `C=CC/N=c1\scc(-c2ccc(Br)s2)n1/N=C/c1ccccc1[N+](=O)[O-]`, for which the IC90 is greater than 10 µM. The IC50 under setting [1] was greater than 10 µM.
For the molecule `C=C(C)c1cccc(C(C)(C)NC(=O)NNc2ccnc3cc(Cl)ccc23)c1`, the IC90 is 9.06 µM. Further, the IC50 (PBLUC_HILL_SLOPE 2.57, PBLUC_R_SQUARED 0.548, read-out: LUCIFERASE INFECTION ASSAY - IC50) stood at 3.86 µM.
For the molecule `Cc1cc(C(=O)Nc2nc3ccccc3[nH]2)c(C)s1`, the IC90 is greater than 10 µM. Moreover, under setting [1], the IC50 is greater than 10 µM.
In the case of `COc1ccc(-n2c(C)cc(C(=O)Cn3ncc(Cl)c(Cl)c3=O)c2C)cc1`, the IC90 was greater than 10 µM. Where the note is “HEPG2TOX_HILL_SLOPE 0.989, HEPG2TOX_R_SQUARED 0.688, read-out: LUCIFERASE INFECTION ASSAY - IC50”, the IC50 was greater than 10 µM.
Consider `Cc1noc(/C=C/c2cc(C(F)(F)F)cc(C(F)(F)F)c2)c1[N+](=O)[O-]`, for which the IC90 was greater than 9.01 µM. Further, the half-maximal inhibitory concentration (IC50) under setting [1] is greater than 9.01 µM.
On to `CN(C)c1cccc(-c2cnc3sc(NCc4ccccc4)nn23)c1`, for which the IC90 stood at 3.57 µM. Further, the IC50 (PBLUC_HILL_SLOPE 15, PBLUC_R_SQUARED 0.389, read-out: LUCIFERASE INFECTION ASSAY - IC50) was 3.08 µM.
As to `CNS(=O)(=O)c1ccc(CCC(=O)OC2CCCCC2=O)cc1` (centres undefined), the IC90 is greater than 10 µM. Moreover, under setting [1], the IC50 is greater than 10 µM.
With `COc1ccc(C(=O)N2CCN(c3ncnc4cc(Cl)ccc34)CC2)cc1`, the IC90 is greater than 10 µM. In addition, the IC50 (HEPG2TOX_HILL_SLOPE 0.344, HEPG2TOX_R_SQUARED 0.575, PBLUC_HILL_SLOPE 18.9, PBLUC_R_SQUARED 0.0549, read-out: LUCIFERASE INFECTION ASSAY - IC50) worked out at 9.92 µM.
`Nc1c(C(=O)Nc2cccc(F)c2)sc2nc3c(cc12)N1CCC3CC1`: the IC90 is greater than 8.96 µM. For the same molecule, the IC50 (PBLUC_HILL_SLOPE 1.17, PBLUC_R_SQUARED 0.5, read-out: LUCIFERASE INFECTION ASSAY - IC50) came out at 1.98 µM.
For `CC(C)(C)c1cc(C(=O)NNC(=S)Nc2ccccc2)n(Cc2ccc(Cl)cc2Cl)n1`, the IC90 is 4.51 µM. For the same molecule, where the note is “FFLUC_HILL_SLOPE 12.6, FFLUC_R_SQUARED 0.389, HEPG2TOX_HILL_SLOPE 2.18, HEPG2TOX_R_SQUARED 0.945, PBLUC_HILL_SLOPE 8.72, PBLUC_R_SQUARED 0.517, read-out: LUCIFERASE INFECTION ASSAY - IC50”, the IC50 turned out to be 3.51 µM.
For the molecule `O=S(=O)(NCC(Sc1nnc(Nc2ccccc2)s1)c1ccccc1)c1ccc(Cl)cc1` (centres undefined), the IC90 was greater than 10 µM. For the same molecule, the IC50 (PBLUC_HILL_SLOPE 13.6, PBLUC_R_SQUARED 0.626, read-out: LUCIFERASE INFECTION ASSAY - IC50) was 9.35 µM.
With `CC(C)c1ccc(NC(=O)Nc2nc(C(N)COCc3ccccc3)cs2)cc1` (centres undefined), the IC90 is greater than 8.04 µM. Moreover, the IC50 (PBLUC_HILL_SLOPE 1.46, PBLUC_R_SQUARED 0.665, read-out: LUCIFERASE INFECTION ASSAY - IC50) is 4.91 µM.
As for `Cc1ccc(F)cc1C(=O)Nc1nc2ccccn2c1C(=O)NC1CCCCC1`, the IC90 stood at 1.12 µM. Moreover, under “HEPG2TOX_HILL_SLOPE 1.92, HEPG2TOX_R_SQUARED 0.809, PBLUC_HILL_SLOPE 11.3, PBLUC_R_SQUARED 0.608, read-out: LUCIFERASE INFECTION ASSAY - IC50”, the IC50 is 0.921 µM.
As for `Cc1ccc(C(=O)NCc2nsc(=N/C(=N\c3ccccc3)c3ccccc3)n2Cc2ccccc2)cc1`, the IC90 was greater than 10 µM. Further, under “FFLUC_HILL_SLOPE 3.57, FFLUC_R_SQUARED 0.485, HEPG2TOX_HILL_SLOPE 6.57, HEPG2TOX_R_SQUARED 0.579, PBLUC_HILL_SLOPE 15.6, PBLUC_R_SQUARED 0.234, read-out: LUCIFERASE INFECTION ASSAY - IC50”, the IC50 came to 8.74 µM.
Turning to `c1ccc(OCCN2CCN(c3ccc(-c4nc5ccccc5[nH]4)cn3)CC2)cc1`, the IC90 is greater than 10 µM. Moreover, the IC50 (PBLUC_HILL_SLOPE 16.1, PBLUC_R_SQUARED 0.136, read-out: LUCIFERASE INFECTION ASSAY - IC50) came out at 9.41 µM.
Regarding `Cc1cc(=O)n(-c2ccc(C(F)(F)F)cc2[N+](=O)[O-])[nH]1`, the IC90 is greater than 10 µM. For the same molecule, the IC50 under setting [1] was greater than 10 µM.
With `O=C(CCc1c(-c2ccc(F)cc2)[nH]c2ccc(F)cc12)N1CCN(c2ccccn2)CC1`, the IC90 is 3.87 µM. Under setting [1], the IC50 was found to be 3.16 µM.
On to `CC(C)(C)c1csc(NC(=O)C2CCCN2S(=O)(=O)c2ccc(Br)s2)n1` (centres undefined), for which the IC90 is greater than 10 µM. Also, the IC50 (PBLUC_HILL_SLOPE 9.23, PBLUC_R_SQUARED 0.508, read-out: LUCIFERASE INFECTION ASSAY - IC50) was found to be 9.84 µM.
In the case of `COc1ccccc1-c1cc(-c2ccccc2N(C)C)cnc1N`, the IC90 is greater than 10.3 µM. In addition, the IC50 (HEPG2TOX_HILL_SLOPE 3.39, HEPG2TOX_R_SQUARED 0.524, PBLUC_HILL_SLOPE 1.95, PBLUC_R_SQUARED 0.212, read-out: LUCIFERASE INFECTION ASSAY - IC50) stood at 5.47 µM.
